Entries after “also recorded” stand apart in the source; their conditions may differ.
Experiments:
[1] = biological target: mannose binding protein (MBP) of Acanthamoeba (Acanthamoeba castellanii, UniProt Q6J288); assay: Solid-phase assay of 35S-labeled Acanthamoeba binding to Man-BSA coated wells; set-up: species or system Acanthamoeba strain MEEI 0184 (A. castellani); conditions: for Inhibition of amoebic binding to Man-BSA / affinity of amoebic lectin: no concentration stated
Source text: The Acanthamoeba strain MEEI 0184 (A. castellani based on morphological characteristics) was derived from an infected human cornea and used throughout this study. ATCC strain 30868 should have similar properties. The parasites were axenically cultured in PYG medium. A solid-phase assay characterized the sugar binding properties of the mannose binding protein (MBP) of Acanthamoeba (Z. Yang et al., Infect. Immun. 65:439-445, 1997). Briefly, wells of microtiter plates were coated with bovine serum albumin-α-D-mannopyranosyl phenylisothiocyanate (Man-BSA, 15-25 moles of α-D-mannopyranoside/mole albumin, 0.03 μg/ml, 50μl/well in 0.1 M sodium carbonate buffer, pH 9.6, 4° C. overnight). Nonspecific binding was blocked with 1% BSA in phosphate buffered saline (PBS, 1 hour, room temperature). After adding a 50-μl aliquot of ^35 S-labeled Acanthamoeba (5×10^6 cells/ml in PBS; 1 to 2 cpm/parasite, >95% trophozoites) to each well, the plates were incubated for 2 hours at room temperature. After rinsing the cells with PBS to remove unbound Acanthamoeba, 0.1 ml of 2% sodium dodecyl sulfate (SDS) was added to each well, and the radioactivity in aliquots of solubilized material was determined in a scintillation counter.

[2] = system: Acanthamoeba-conditioned medium (ACM); assay: CPE assay with Acanthamoeba-conditioned medium (ACM); format: cell-based
Procedure: To determine whether the mechanism modulating the CPE produced by intact amoeba and amoeba-conditioned medium (ACM) are distinct, CPE and assays were also performed using ACM in the presence and the absence of saccharides. To produce ACM, exponentially growing parasites (>95% trophozoites) in PYG media (Proteose Peptone-yeast extract-glucose , J. T. Bornes et al., J. Parasitol. 56:904-906, 1970) were rinsed twice with SFB medium and incubated in serum-free SFB medium at concentrations between 2×10^5 to 1×10^6 cells/ml in a CO2 incubator for 24 hours. After removing the parasites by centrifugation, each supernatant was analyzed for its ability to induce CPE. Saccharides (α-Man and GIcNAc, 50 mM) were added either to the ACM after it was produced or to serum-free medium used to produce an ACM. The ACM produced in the presence of the saccharides was also analyzed after removal of the saccharides by centrifugation through Centricon 3 microconcentrators (Amicon Inc., Beverly, Mass.).
To determine the role of the parasitic secretory factors in the cytopathogenic mechanism, chromium release and CPE assays were performed using ACM. In this study, parasites were incubated in the SFB media for 24 hours, centrifuged to remove parasites and the conditioned medium was tested for its ability to produce cytolysis and CPE. The ACM produced remarkable CPE. […] Approximately 6 to 8 hours following the incubation of the monolayer with the ACM, the cell sheet at the edges of the monolayer began to lift and roll inwards and eventually the entire monolayer lifted en bloc from the dish. These observations were similar to those seen when the monolayers were incubated with trophozoites in the presence of α-Man. Unlike the CPE induced by intact amoeba, the CPE induced by the ACM was not inhibited by either α-Man or GlcNAc when the sugars were added to the ACM after it was produced. In the next set of experiments, ACM was produced in the presence of α-Man or GIcNAc and was tested for CPE-inducing activity. […] In addition, the filtrate and retentate obtained after filtering the ACM in Centricon 3 microconcentrators were tested for CPE-inducing activity. When the ACM was produced in the absence of either sugar, substantially all of the CPE-inducing activity was found in the retentate obtained after Centricon filtration.

[3] = system: Acanthamoeba; assay: 51Cr release assay of amoeba-induced cytolysis of corneal epithelium; format: cell-based
Procedure: Chromium release experiments were performed to confirm the absence or occurrence of cytolysis. Visually, cell plaques or bare spots in a culture can indicate either cell loss by cytolysis, or separation of the cell from the culture surface, wherein detached cells, although initially viable, subsequently die. Cell lysis was quantified by measuring ^51 Cr release from prelabeled cells. After incubating confluent monolayer cultures of corneal epithelium in 24-well plates in cell culture medium containing Na^51 CrO4 (460 mCi/mg, 12 μCi/ml) for 18-20 hours, the cells were thoroughly rinsed and incubated with Acanthamoeba (1×10^6 parasites/ml SFB media). The four groups were (i) Acanthamoeba in media alone, (ii) Acanthamoeba in media containing α-Man, (iii) Acanthamoeba in media containing GlcNAc, and (iv) Acanthamoeba condition media. When approximately 50-70% cell loss occurred based on phase contrast microscopy, aliquots of cell-free conditioned medium from each well were analyzed. Supernatants from the four wells in each group were pooled before analysis. Percent specific release was calculated using E/T×100, where E is CPM released in test well minus CPM released in control (parasite-free) well and T is the total CPM (CPM cells+CPM supernatant in control wells). "CPM cells" was determined by incubating control wells with 0.5% Triton X-100. Conditioned media from each well was also analyzed for lactate dehydrogenase (LDH) release using an LDH assay kit (Sigma).

[4] = biological target: proteinases P2 and P3; assay: Zymography of media conditioned by amoebae with primary corneal epithelium, with or without α-Man; format: cell-based, Acanthamoeba; conditions: amoebae with host cells, adhesion blocked by saccharide
Procedure: To characterize the mechanism by which the mannose-mediated host-parasite interactions influence the amoeba-induced cytolysis and/or cytopathic effect, conditioned media obtained by incubating amoebae with primary cultures of corneal epithelium in the presence and absence of α-Man for 6 to 8 hours were analyzed by zymography. Media conditioned by only Acanthamoeba or only epithelial cells were also analyzed. Zymography was performed using separating gels containing 10% acrylamide and 2 mg/ml gelatin, essentially as described by D. E. Kleiner et al. (Anal Biochem. 218:325-329, 1994). Samples were diluted in the electrophoresis sample buffer (U. K. Laemmli, Nature 227:680-685, 1970) without mercaptoethanol and were applied to the gels. After electrophoresis, proteinases separated on the gels were renatured by incubating the gels in 2.5% Triton X-100 in 50 mM Tris-HCl, pH 7.5 to remove SDS. After incubating the gels for 18 hours in a developing buffer (50 mM Tris-HCl, pH 7.5 containing 10 mM CaCl2), the gels were stained with Coomassie brilliant blue. Areas of digestion were visualized as non-staining regions. In some experiments, samples were pre-treated with phenylmethylsulfonyl fluoride (PMSF, 1 mM), an inhibitor of […] for one hour prior to electrophoresis, or 1,10-phenanthroline (1 mM), an inhibitor of metalloproteinases, was added to the developing buffer.

[5] = system: Acanthamoeba; assay: Adhesion of amoebae to corneal epithelial cell monolayer; format: cell-based; conditions: saccharide present in media

mannose binding protein (MBP) of Acanthamoeba, sequence (Q6J288 entry or part of it): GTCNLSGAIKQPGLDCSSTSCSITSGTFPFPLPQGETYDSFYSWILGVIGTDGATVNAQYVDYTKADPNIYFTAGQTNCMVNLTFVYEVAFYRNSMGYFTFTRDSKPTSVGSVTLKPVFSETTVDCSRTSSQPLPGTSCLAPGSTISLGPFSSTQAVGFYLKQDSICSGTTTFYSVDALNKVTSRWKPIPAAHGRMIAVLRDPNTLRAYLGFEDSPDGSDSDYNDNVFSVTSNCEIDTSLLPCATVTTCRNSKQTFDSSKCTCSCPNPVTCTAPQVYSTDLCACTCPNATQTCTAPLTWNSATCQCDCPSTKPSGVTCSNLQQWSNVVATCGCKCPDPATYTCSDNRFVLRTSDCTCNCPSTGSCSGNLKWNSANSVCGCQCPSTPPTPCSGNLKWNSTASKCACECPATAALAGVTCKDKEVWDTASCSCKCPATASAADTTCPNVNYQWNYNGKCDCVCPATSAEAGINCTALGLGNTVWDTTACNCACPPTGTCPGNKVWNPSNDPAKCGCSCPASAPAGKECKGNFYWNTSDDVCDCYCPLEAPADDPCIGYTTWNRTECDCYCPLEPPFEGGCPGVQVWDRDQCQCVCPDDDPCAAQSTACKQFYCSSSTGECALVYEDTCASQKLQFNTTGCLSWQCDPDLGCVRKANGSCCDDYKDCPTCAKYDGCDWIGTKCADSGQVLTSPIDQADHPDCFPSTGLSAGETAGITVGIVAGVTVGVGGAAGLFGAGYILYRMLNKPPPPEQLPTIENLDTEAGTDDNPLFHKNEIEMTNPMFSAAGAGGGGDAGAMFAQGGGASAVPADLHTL

CO[C@H]1O[C@H](CO)[C@@H](O)[C@H](O)[C@@H]1O [Methyl-α-D-mannopyranoside]
Relative inhibitory potency in binding to Man-BSA ([1]; comparator named in the value, listed as α-Man): ten times that of D-mannose; also recorded: eight times that of β-Man | Inhibition of amoebic binding to Man-BSA / affinity of amoebic lectin ([1]; listed as Methyl-α-mannopyranoside): potent inhibitors | Inhibition of amoebic binding to Man-BSA / affinity of amoebic lectin ([1]; listed as α-Man): highest affinity | CPE-inducing activity of ACM produced in SFB containing the saccharide ([2]; saccharide 50 mM in medium used to produce ACM): strongly induced CPE | Inhibition of ACM-induced CPE ([2]; sugar (50 mM) added to the ACM after it was produced): not inhibited | Percentage specific 51Cr release ([3]; Acanthamoeba 1×10^6 parasites/ml in media containing the saccharide, media alone about 100): ~28% | Inhibition of amoeba-induced cytolysis ([3]; fifty millimolar, 51Cr release): more than 70% | Expression of proteinase P2 (97 kD) [4]: robustly expressed | Expression of proteinase P3 (80 kD) ([4]; listed as α-Man): not expressed; also recorded: not detected | Adhesion of amoebae to the cell monolayer in presence of saccharide [5]: did not adhere

Source: patent US6037333A, “Microbe-inhibiting compositions” (Trustees of Tufts College, priority 1998, dated 2000)
